Species on record: Rattus norvegicus
Assay: Open TG-GATES - Regimen: Daily Repeat
Type: toxicity, organism-based, Sprague-Dawley
Design: regimen Daily Repeat, gender Male, age 6 weeks
Conditions: in vivo, iv, 0 mg/kg, route intravenous injection, dose level Control; for APTT / Bas / Eos / Fbg / Hb / Ht / Lym / MCH / MCHC / MCV / Mono / Neu / PT / Plat / RBC / Ret / WBC: tissue Blood; for KIDNEY_L / KIDNEY_R / KIDNEY_TOTAL: tissue Kidney; for LIVER: tissue Liver; for A/G / ALP / ALT / AST / BUN / CRE / Ca / Cl / DBIL / GLC / IP / K / LDH / Na / PL / RALB / TBIL / TC / TG / TP / gamma-GTP: tissue Plasma

Compound NCCBr [BROMOETHANAMINE] has a TERMINAL_BW (72 h, time 3 day) of 229.6 g, an APTT (72 h, time 3 day) of 23.7 s and a Bas (72 h, time 3 day) of 0%. For the same compound, the Eos (72 h, time 3 day) was 1%, the Fbg (72 h, time 3 day) was 290.6 mg/dL and the Hb (72 h, time 3 day) was 13.5 g/dL. The Ht (72 h, time 3 day) was 39.3%, the Lym (72 h, time 3 day) was 82.2% and the MCH (72 h, time 3 day) was 21 pg. For the same compound, the MCHC (72 h, time 3 day) was 34.4%, the MCV (72 h, time 3 day) was 61.2 fL and the Mono (72 h, time 3 day) was 2%. For the same compound, the Neu (72 h, time 3 day) was 13.6%, the PT (72 h, time 3 day) was 16.3 s and the Plat (72 h, time 3 day) was 122.8 x10_4/uL. For the same compound, the RBC (72 h, time 3 day) was 641.2 x10_4/ul, the Ret (72 h, time 3 day) was 4.8% and the WBC (72 h, time 3 day) was 116.1 x10_2/uL. It also gave a KIDNEY_L (72 h, time 3 day) of 1 g, a KIDNEY_R (72 h, time 3 day) of 1 g and a KIDNEY_TOTAL (72 h, time 3 day) of 2 g. For the same compound, the LIVER (72 h, time 3 day) was 10.3 g, the A/G (72 h, time 3 day) was 1.2 and the ALP (72 h, time 3 day) was 1818.6 IU/L. It also gave an ALT (72 h, time 3 day) of 45.2 IU/L, an AST (72 h, time 3 day) of 72.2 IU/L and a BUN (72 h, time 3 day) of 16 mg/dL. It also gave a CRE (72 h, time 3 day) of 0.2 mg/dL, a Ca (72 h, time 3 day) of 10.7 mg/dL and a Cl (72 h, time 3 day) of 106 meq/L. The DBIL (72 h, time 3 day) was 0 mg/dL, the GLC (72 h, time 3 day) was 181 mg/dL and the IP (72 h, time 3 day) was 7.7 mg/dL. The K (72 h, time 3 day) was 4.7 meq/L, the LDH (72 h, time 3 day) was 170 IU/L and the Na (72 h, time 3 day) was 141.4 meq/L. The PL (72 h, time 3 day) was 132 mg/dL, the RALB (72 h, time 3 day) was 3 g/dL and the TBIL (72 h, time 3 day) was 0.006 mg/dL. It also gave a TC (72 h, time 3 day) of 68.4 mg/dL, a TG (72 h, time 3 day) of 76 mg/dL and a TP (72 h, time 3 day) of 5.5 g/dL. For the same compound, the gamma-GTP (72 h, time 3 day) was 1.4 IU/L, the TERMINAL_BW ([…], time 7 day) was 257 g and the TERMINAL_BW ([…], time 14 day) was 314.6 g. For the same compound, the TERMINAL_BW ([…], time 28 day) was 359.9 g, the APTT ([…], time 7 day) was 23.2 s and the Bas ([…], time 7 day) was 0%. For the same compound, the Eos ([…], time 7 day) was 1%, the Fbg ([…], time 7 day) was 288.8 mg/dL and the Hb ([…], time 7 day) was 13.7 g/dL. It also gave a Ht ([…], time 7 day) of 39.5%, a Lym ([…], time 7 day) of 82.8% and an MCH ([…], time 7 day) of 21 pg. The MCHC ([…], time 7 day) was 34.6%, the MCV ([…], time 7 day) was 60.9 fL and the Mono ([…], time 7 day) was 2.4%. The Neu ([…], time 7 day) was 13.2%, the PT ([…], time 7 day) was 15.9 s and the Plat ([…], time 7 day) was 132.6 x10_4/uL. For the same compound, the RBC ([…], time 7 day) was 649.4 x10_4/ul, the Ret ([…], time 7 day) was 4.4% and the WBC ([…], time 7 day) was 113.7 x10_2/uL. The APTT ([…], time 14 day) was 23.9 s, the Bas ([…], time 14 day) was 0% and the Eos ([…], time 14 day) was 1.2%. The Fbg ([…], time 14 day) was 301 mg/dL, the Hb ([…], time 14 day) was 14 g/dL and the Ht ([…], time 14 day) was 40.1%. It also gave a Lym ([…], time 14 day) of 85%, an MCH ([…], time 14 day) of 20.6 pg and an MCHC ([…], time 14 day) of 34.9%. The MCV ([…], time 14 day) was 59 fL, the Mono ([…], time 14 day) was 2.2% and the Neu ([…], time 14 day) was 10.6%. It also gave a PT ([…], time 14 day) of 15.9 s, a Plat ([…], time 14 day) of 117.9 x10_4/uL and an RBC ([…], time 14 day) of 680.2 x10_4/ul. For the same compound, the Ret ([…], time 14 day) was 3.6%, the WBC ([…], time 14 day) was 89.2 x10_2/uL and the APTT ([…], time 28 day) was 25.5 s. It also gave a Bas ([…], time 28 day) of 0%, an Eos ([…], time 28 day) of 1.8% and a Fbg ([…], time 28 day) of 297 mg/dL. The Hb ([…], time 28 day) was 15.7 g/dL, the Ht ([…], time 28 day) was 42.5% and the Lym ([…], time 28 day) was 84.8%. It also gave an MCH ([…], time 28 day) of 20.6 pg, an MCHC ([…], time 28 day) of 36.9% and an MCV ([…], time 28 day) of 55.8 fL. It also gave a Mono ([…], time 28 day) of 2%, a Neu ([…], time 28 day) of 10.8% and a PT ([…], time 28 day) of 16.7 s. For the same compound, the Plat ([…], time 28 day) was 100.6 x10_4/uL, the RBC ([…], time 28 day) was 762.2 x10_4/ul and the Ret ([…], time 28 day) was 2.3%. It also gave a WBC ([…], time 28 day) of 126.1 x10_2/uL, a KIDNEY_L ([…], time 7 day) of 1.1 g and a KIDNEY_R ([…], time 7 day) of 1.1 g. For the same compound, the KIDNEY_TOTAL ([…], time 7 day) was 2.2 g, the KIDNEY_L ([…], time 14 day) was 1.3 g and the KIDNEY_R ([…], time 14 day) was 1.3 g. It also gave a KIDNEY_TOTAL ([…], time 14 day) of 2.6 g, a KIDNEY_L ([…], time 28 day) of 1.3 g and a KIDNEY_R ([…], time 28 day) of 1.4 g. It also gave a KIDNEY_TOTAL ([…], time 28 day) of 2.7 g, an LIVER ([…], time 7 day) of 11.9 g and an LIVER ([…], time 14 day) of 13.5 g. It also gave an LIVER ([…], time 28 day) of 13.9 g, an A/G ([…], time 7 day) of 1.1 and an ALP ([…], time 7 day) of 1565.4 IU/L. The ALT ([…], time 7 day) was 39 IU/L, the AST ([…], time 7 day) was 68.2 IU/L and the BUN ([…], time 7 day) was 17.6 mg/dL. For the same compound, the CRE ([…], time 7 day) was 0.2 mg/dL, the Ca ([…], time 7 day) was 10.7 mg/dL and the Cl ([…], time 7 day) was 104.6 meq/L. The DBIL ([…], time 7 day) was 0 mg/dL, the GLC ([…], time 7 day) was 188.2 mg/dL and the IP ([…], time 7 day) was 6.9 mg/dL. For the same compound, the K ([…], time 7 day) was 4.7 meq/L, the LDH ([…], time 7 day) was 190.6 IU/L and the Na ([…], time 7 day) was 139.8 meq/L. For the same compound, the PL ([…], time 7 day) was 138.6 mg/dL, the RALB ([…], time 7 day) was 2.9 g/dL and the TBIL ([…], time 7 day) was 0.008 mg/dL. The TC ([…], time 7 day) was 71.2 mg/dL, the TG ([…], time 7 day) was 94.8 mg/dL and the TP ([…], time 7 day) was 5.5 g/dL. It also gave a gamma-GTP ([…], time 7 day) of 2.4 IU/L, an A/G ([…], time 14 day) of 1.1 and an ALP ([…], time 14 day) of 1268.2 IU/L. For the same compound, the ALT ([…], time 14 day) was 42 IU/L, the AST ([…], time 14 day) was 72.8 IU/L and the BUN ([…], time 14 day) was 18.4 mg/dL. It also gave a CRE ([…], time 14 day) of 0.2 mg/dL, a Ca ([…], time 14 day) of 10.9 mg/dL and a Cl ([…], time 14 day) of 106 meq/L. It also gave a DBIL ([…], time 14 day) of 0 mg/dL, a GLC ([…], time 14 day) of 183.8 mg/dL and an IP ([…], time 14 day) of 7.4 mg/dL. The K ([…], time 14 day) was 4.5 meq/L, the LDH ([…], time 14 day) was 176 IU/L and the Na ([…], time 14 day) was 143.8 meq/L. It also gave a PL ([…], time 14 day) of 139.2 mg/dL, an RALB ([…], time 14 day) of 3.1 g/dL and a TBIL ([…], time 14 day) of 0.004 mg/dL. The TC ([…], time 14 day) was 71.6 mg/dL, the TG ([…], time 14 day) was 97.8 mg/dL and the TP ([…], time 14 day) was 5.8 g/dL. It also gave a gamma-GTP ([…], time 14 day) of 2.4 IU/L, an A/G ([…], time 28 day) of 1.1 and an ALP ([…], time 28 day) of 1244.2 IU/L. For the same compound, the ALT ([…], time 28 day) was 39.2 IU/L, the AST ([…], time 28 day) was 67.8 IU/L and the BUN ([…], time 28 day) was 19.6 mg/dL. For the same compound, the CRE ([…], time 28 day) was 0.2 mg/dL, the Ca ([…], time 28 day) was 10.4 mg/dL and the Cl ([…], time 28 day) was 104.4 meq/L. It also gave a DBIL ([…], time 28 day) of 0 mg/dL, a GLC ([…], time 28 day) of 203.4 mg/dL and an IP ([…], time 28 day) of 6.4 mg/dL. For the same compound, the K ([…], time 28 day) was 4.2 meq/L, the LDH ([…], time 28 day) was 147 IU/L and the Na ([…], time 28 day) was 144.2 meq/L. It also gave a PL ([…], time 28 day) of 137 mg/dL, an RALB ([…], time 28 day) of 3.1 g/dL and a TBIL ([…], time 28 day) of 0.01 mg/dL. It also gave a TC ([…], time 28 day) of 66 mg/dL, a TG ([…], time 28 day) of 124.4 mg/dL and a TP ([…], time 28 day) of 6 g/dL. For the same compound, the gamma-GTP ([…], time 28 day) was 2.8 IU/L.
